Assay results taken from US9121801B2, “Methods and devices for cellular analysis” (BioMarker Strategies, LLC, priority 2007, dated 2015).
Read-outs that look alike come from different tables or passages of the source.

What was measured:
[1] = test system: FOS mRNA; settings: in culture; susceptible cell lines A431, CAL27, and HN11; cited from earlier work
[2] = test system: FOS expression; settings: 14 days treatment, cited from earlier work
[3] = test system: FOS mRNA; assay: FOS mRNA induction by quantitative RT-PCR in MCF-7 cells; format: cell-based, human; settings: 100 ng/ml of EGF ligand, incubation 0-45 minutes
Protocol: A functional measurement of cellular activation includes FOS mRNA induction determined by quantitative RT-PCR. FOS is an early response gene associated with the EGFR pathway. In an experiment, MCF-7 cells were grown in normal growth conditions in 6 well plates to 80% confluency. Cells were gently scraped and exposed to increasing shear forces (0-800 dyne/cm^2 through the Harvard Pipetter) in addition to increasing incubation times (0-45 minutes) in the presence or absence of 100 ng/ml of EGF ligand (Sigma) prior to RNA extraction. FOS mRNA induction peaks at 30-45 minutes and returns to basal levels in approximately 60 minutes. FOS induction is also stimulated as a result of incubation with EGF ligand. […] See FIGS. 17 and 18 for a graphical depiction of the results obtained.

[4] = EGFR-sensitive A431, CAL27, and HN11 xenograft tumors, gefitinib (A431), erlotinib (CAL27, HN11)
[5] = resistant strains, xenografts, gefitinib (HuCCT1), erlotinib (Hep2)

Row | Compound | FOS mRNA levels [1] | increase in FOS expression in vivo [2, 4] | increase in FOS expression in vivo [2, 5] | FOS induction [3]
1 | C#Cc1cccc(Nc2ncnc3cc(OCCOC)c(OCCOC)cc23)c1 [erlotinib] | decrease FOS mRNA levels | abrogate the increase in FOS expression | not in resistant strains | –
2 | EGF ligand: growth factor, tumor-cell stimulatory ligand (Sigma) (NSDSECPLSHDGYCLHDGVCMYIEALDKYACNCVVGYIGERCQYRDLKWWELR; Epidermal growth factor; UniProt P01133 971-1023, looked up) | – | – | – | stimulated
3 | COc1cc2ncnc(Nc3ccc(F)c(Cl)c3)c2cc1OCCCN1CCOCC1 [gefitinib] | decrease FOS mRNA levels | abrogate the increase in FOS expression | not in resistant strains | –
